Structures can show the parent of a compound that is named as a salt. Where two headings read alike, the source gives them in different places.
How the values were obtained:
human GALR1 receptor = target: T1, human GALR1 receptor (Homo sapiens, UniProt P47211); experiment: Binding affinity at the human GALR1 receptor; conditions: read-out: hGALR1 Ki
T1 construct: expressed in transfected cells
T1 sequence (P47211 1-349): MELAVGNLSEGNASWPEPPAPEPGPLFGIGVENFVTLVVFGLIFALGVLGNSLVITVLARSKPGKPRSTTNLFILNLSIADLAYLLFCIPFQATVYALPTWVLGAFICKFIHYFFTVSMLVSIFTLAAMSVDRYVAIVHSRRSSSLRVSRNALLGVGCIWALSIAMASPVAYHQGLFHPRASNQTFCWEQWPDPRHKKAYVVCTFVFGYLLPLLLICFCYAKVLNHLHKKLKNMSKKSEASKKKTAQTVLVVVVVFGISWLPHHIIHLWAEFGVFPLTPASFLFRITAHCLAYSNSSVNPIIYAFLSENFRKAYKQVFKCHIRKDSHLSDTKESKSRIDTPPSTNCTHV
Description: (§1) The design of such compounds can be optimized by determining their binding affinity at the recombinant MCH1, NPY1, NPY2, Gal1, Gal2, Gal3, and 5HT2C receptors. The methods to obtain the cDNA of the receptor, express said receptors in heterologous systems, and carry out assays to determine binding affinity are described in the following publications: human NPY1 (Larhammar et al., 1992), human NPY5 (U.S. Pat. No. 5,602,024, the disclosure of which is hereby incorporated by reference in its entirety into this application), human Gall (Habert-Ortoli et al., 1994), human Gal2 (Smith et al., 1997), human Gal3 (Smith et al., 1998), and rat 5HT2C (Julius et al., 1988). Additionally, the compounds would optimally not bind at the following receptors due to possible side effects: human H1 histamine and human H2 histamine receptors; human alpha-1A adrenergic, human alpha-1D adrenergic, human alpha-2A adrenergic, human alpha-2B adrenergic, and human alpha-2C adrenergic receptors; human dopamine D1, D2, D3, D4, and D5 receptors; the β-adrenoceptor; and the human 5HT1A, human 5HT1B, human 5HT1D, human 5HT1E, human 5HT1F, human 5HT2A, rat 5HT2C, human 5HT4, human 5HT6, and human 5HT7 receptors.

human GALR2 receptor = target: T2, human GALR2 receptor (Homo sapiens, UniProt O43603); experiment: Binding affinity at the human GALR2 receptor; conditions: Table 3a; read-out: hGALR2 Ki
T2 construct: expressed in transfected cells
T2 sequence (O43603 1-387): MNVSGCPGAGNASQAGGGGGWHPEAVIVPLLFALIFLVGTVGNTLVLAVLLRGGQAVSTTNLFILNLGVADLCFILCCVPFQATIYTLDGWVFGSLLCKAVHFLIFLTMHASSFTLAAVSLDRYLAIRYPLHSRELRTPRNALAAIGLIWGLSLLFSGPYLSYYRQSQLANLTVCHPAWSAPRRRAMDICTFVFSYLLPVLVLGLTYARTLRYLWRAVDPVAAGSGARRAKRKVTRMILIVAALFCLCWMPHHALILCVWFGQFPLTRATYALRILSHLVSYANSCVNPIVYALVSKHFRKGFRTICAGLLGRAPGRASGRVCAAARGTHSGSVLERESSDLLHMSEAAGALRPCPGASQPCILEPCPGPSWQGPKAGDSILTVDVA
Description: as §1

human GALR3 receptor = target: T3, human GALR3 receptor (Homo sapiens, UniProt O60755); experiment: Binding affinity at the human GALR3 receptor; conditions: read-out: hGALR3 Ki
T3 construct: expressed in transfected cells
T3 sequence (O60755 1-368): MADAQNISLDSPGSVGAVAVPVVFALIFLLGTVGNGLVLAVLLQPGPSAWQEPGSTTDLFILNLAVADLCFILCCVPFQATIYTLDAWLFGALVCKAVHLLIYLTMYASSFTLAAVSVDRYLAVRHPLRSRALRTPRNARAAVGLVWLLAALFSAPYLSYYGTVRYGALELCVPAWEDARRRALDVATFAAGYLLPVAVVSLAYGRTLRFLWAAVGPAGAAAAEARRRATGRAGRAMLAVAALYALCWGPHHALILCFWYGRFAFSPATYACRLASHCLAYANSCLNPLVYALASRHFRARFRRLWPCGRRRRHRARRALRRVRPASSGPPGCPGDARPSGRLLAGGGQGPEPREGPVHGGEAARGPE
Description: as §1

rat 5HT2C receptor = target: T4, rat 5HT2C receptor (Rattus norvegicus, UniProt P08909); experiment: Binding affinity at the rat 5HT2C receptor; conditions: Table 3a; read-out: r5HT2C Ki
T4 construct: expressed in transfected cells
T4 sequence (P08909 33-460): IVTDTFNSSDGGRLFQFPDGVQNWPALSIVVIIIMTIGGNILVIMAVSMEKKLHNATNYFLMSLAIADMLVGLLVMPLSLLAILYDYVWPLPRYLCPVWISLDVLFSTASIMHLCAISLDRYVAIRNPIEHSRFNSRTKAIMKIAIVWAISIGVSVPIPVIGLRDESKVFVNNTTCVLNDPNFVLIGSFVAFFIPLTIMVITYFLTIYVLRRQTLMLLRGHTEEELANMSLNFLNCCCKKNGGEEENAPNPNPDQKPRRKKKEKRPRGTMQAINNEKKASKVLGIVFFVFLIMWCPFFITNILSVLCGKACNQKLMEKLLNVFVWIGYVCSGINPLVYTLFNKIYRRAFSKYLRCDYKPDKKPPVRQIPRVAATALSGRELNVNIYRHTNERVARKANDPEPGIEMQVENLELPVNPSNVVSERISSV
Description: as §1
Other 5HT Receptors: Other serotonin receptor binding assays were performed according to published methods: rat 5HT2C receptor (Julius et al., 1988); and 5HT6 (Monsma, et al., 1993). The binding assays using the 5HT4 receptor were performed according to the procedures described in U.S. Pat. No. 5,766,879, the disclosure of which is hereby incorporated by reference in its entirety into this application.

human MCH1 receptor [1] = target: T5, human MCH1 receptor (Homo sapiens, UniProt Q99705); experiment: Competition binding, membrane preparations of A293 cells expressing the human MCH1 receptor, [3H] Compound 10 as radioligand; parameters: expressed in transfected cells; conditions: Table 3b; A293 cell membranes, [3H] Compound 10; read-out: hMCH1* Ki
Description: TRITIATED METHYL (4S)-3-{[(3-{4-[3-(ACETYLAMINO)PHENYL]-1-[…]}PROPYL)AMINO]CARBONYL}-4-(3,4-DIFLUOROPHENYL)-6-(METHOXYMETHYL)-2-OXO-1,2,3,4-TETRAHYDRO-5-PYRIMIDINECARBOXYLATE ([^3H] COMPOUND 10): This radiochemical synthesis was carried out by Amersham Pharmacia Biotech, Cardiff, Wales. A methanolic solution of methyl (4S)-3-({[3-(4-[3-(acetylamino)phenyl]-3,6-dihydro-1(2H)pyridinyl)propyl]amino}carbonyl)-4-(3,4-difluorophenyl)-6-(methoxymethyl)-2-oxo-1,2,3,4-tetrahydro-5-pyrimidinecarboxylate was exposed to tritium gas at 1 atmosphere pressure in the presence of 5% palladium on carbon with stirring overnight to give the tritiated methyl (4S)-3-{[(3-{4-[3-(acetylamino)phenyl]-1-piperidinyl}propyl)amino]carbonyl}-4-(3,4-difluorophenyl)-6-(methoxymethyl)-2-oxo-1,2,3,4-tetrahydro-5-pyrimidinecarboxylate ((+)-isomer) After purification by reverse phase HPLC (Hypersil ODS, 4.6×100 mm, methanol:H2O:Et3N 10:90:1 to 100:0:1 in 15 min at 1.0 mL/min, with radiochemical and UV detection), this product was used as a radioligand in the MCH1 binding assays. The same procedure was carried out with H2 gas in place of ^3H2 to afford the non-radioactive version of Compound 10.

human MCH1 receptor [2] = target: T5, human MCH1 receptor; experiment: Intracellular calcium response to MCH in COS-7 cells transfected with MCH1 (fluo-3, FLIPR): antagonist potency; type: cell-based; parameters: expressed in transfected cells; host or cells: COS-7; conditions: read-out: Kb (nM) hMCH1
Description: MCH1 antagonist compounds were identified by their ability to inhibit the MCH-elicited response. […]. From the IC50 values, the antagonist potency (Kb)was derived using the Cheng-Prussof correction (Lazareno and Birdsall, 1993). […]

rat MCH1 receptor = target: T6, rat MCH1 receptor (Rattus norvegicus, UniProt P97639); experiment: Binding affinity (Ki) at the rat MCH1 receptor; conditions: Examples 142-153; read-out: Ki (nM) rMCH1
T6 construct: expressed in transfected cells

[3] = test system: micturition reflex, conscious male Sprague Dawley rats; experiment: Continuous Slow Transvesicular Infusion (CSTI) rat model; type: in vivo; parameters: key to Effect of MCH1 antagonist in the CSTI model: B = Produced an increase in bladder capacity in rats relative to baseline capacity; conditions: bladder capacity, intragastric
Description: The effects of compounds on the micturition reflex were assessed in the “distension-induced rhythmic contraction” (DIRC), as described in previous publications (e.g. Maggi et al, 1987; Morikawa et al, 1992), and Continuous Slow Transvesicular Infusion (CSTI) models in rats. Male Sprague Dawley rats weighing approximately 300 g were used for the study. Rats were anaesthetized with pentobarbitone sodium (50 mg/kg, i.p). Through a median abdominal incision, bladder was exposed and a polyethylene cannula (PE 50) was introduced into the bladder through a small cut on the dome of the bladder and the cannula was secured with a purse string suture. The other end of the cannula was exteriorized subcutaneously at the dorsal neck area. Similarly, another cannula (PE 50) was introduced into the stomach through a paramedian abdominal incision with the free end exteriorized subcutaneously to the neck region. The surgical wounds were closed with silk 4-0 suture and the animal was allowed to recover with appropriate post surgical care. On the following day, the animal was placed in a rat restrainer. The open end of the bladder cannula was connected to a pressure transducer as well as infusion pump through a three-way stopcock. The bladder voiding cycles were initiated by continuous infusion of normal saline at the rate of 100 ul/min. The repetitive voiding contractions were recorded on a Power Lab on-line data acquisition software. After recording the basal voiding pattern for an hour, the test drug or vehicle was administered directly into stomach through the intragastric catheter and the voiding cycles were monitored for 5 hours. Micturition pressure and frequency were calculated before and after the treatment (at every 30 min interval) for each animal. Bladder capacity was calculated from the micturition frequency, based on the constant infusion of 100 ul/min. The effect of the test drug was expressed as a percentage of basal, pre-drug bladder capacity. WAY 100635 was used as positive control for comparison.

T6 sequence (P97639 whole entry): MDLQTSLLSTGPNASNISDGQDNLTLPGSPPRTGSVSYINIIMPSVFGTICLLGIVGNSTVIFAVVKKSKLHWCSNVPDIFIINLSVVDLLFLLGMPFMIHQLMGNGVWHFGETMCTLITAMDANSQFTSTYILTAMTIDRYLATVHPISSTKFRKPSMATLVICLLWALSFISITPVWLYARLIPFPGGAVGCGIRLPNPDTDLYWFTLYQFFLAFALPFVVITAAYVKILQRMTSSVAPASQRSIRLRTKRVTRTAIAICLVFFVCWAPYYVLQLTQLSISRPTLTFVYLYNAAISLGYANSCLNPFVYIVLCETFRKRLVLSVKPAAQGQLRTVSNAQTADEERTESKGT
T5 sequence (Q99705 whole entry): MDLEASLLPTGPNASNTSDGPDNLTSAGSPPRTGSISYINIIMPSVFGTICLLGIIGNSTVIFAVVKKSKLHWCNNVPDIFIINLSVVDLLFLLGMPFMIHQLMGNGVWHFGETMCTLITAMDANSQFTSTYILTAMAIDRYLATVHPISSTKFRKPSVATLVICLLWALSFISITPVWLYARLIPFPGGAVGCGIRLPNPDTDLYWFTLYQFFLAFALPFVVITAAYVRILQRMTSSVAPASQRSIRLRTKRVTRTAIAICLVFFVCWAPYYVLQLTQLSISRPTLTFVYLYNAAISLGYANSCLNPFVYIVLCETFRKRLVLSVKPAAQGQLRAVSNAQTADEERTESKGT

SMILES | Ki (rat MCH1 receptor) | Effect of MCH1 antagonist in the CSTI model [3] | other results
COCC1=C(C(=O)OC)C(c2ccc(F)c(F)c2)N(C(=O)NCCCN2CCC(c3cccc4ccccc34)CC2)C(=O)N1 (single isomer, unassigned; (+)) [Example 14, (+)-1,2,3,6-TETRAHYDRO-1-{N-[4-(1-NAPHTHYL)-PIPERIDIN-1-YL]PROP-YL}CARBOXAMIDO-4-METHOXYMETHYL-6-(3,4-DIFLUOROPHENYL)-2-OXO-PYRIMIDINE-5-CARBOXYLIC ACID METHYL ESTER] | – | – | Ki (human GALR1 receptor; Table 3a): > 50000 nM; Ki (human GALR1 receptor; Table 3b): > 50000 nM; Ki (human GALR2 receptor): 42600 nM; Ki (human GALR3 receptor; Table 3a): > 50000 nM; Ki (human GALR3 receptor; Table 3b): > 50000 nM; Ki (rat 5HT2C receptor): 663 nM; melting point: 168 to 172 °C; Ki (human MCH1 receptor [1]): 50 nM; Kb (human MCH1 receptor [2]): 2 nM
COc1ccc2[nH]c(-c3ccccc3)c(CCCN3CCC(c4cccc(NC(=O)C(C)C)c4)CC3)c2c1 [Example 147] | 2.3 nM | B | –
CCn1c2ccccc2c2cc(CN3CCC(c4cccc(NC(=O)C(C)C)c4)CC3)ccc21 [Example 148] | 1.7 nM | B | –
Cc1ccc(NC(=O)C(C)C)cc1C1CCN(Cc2ccc(Oc3ccc(F)c(F)c3)cc2)CC1 [Example 152] | 2.2 nM | B | –
CC(C)C(=O)Nc1cccc(C2CCN(CCCNC(=O)C(c3ccccc3)c3ccccc3)CC2)c1 [Example 153] | 2.9 nM | B | –
CC(=O)C1=C(C)NC(=O)N(C(=O)NCCCN2CCC(c3cccc(NC(=O)C(C)C)c3)CC2)[C@H]1c1cc(F)c(F)c(F)c1 [Example 155, (+)-5-ACETYL-N-(3-{4-[3-(ISOBUTYRYLAMINO)PHENYL]-1-PIPERIDINYL}PROPYL)-4-METHYL-2-OXO-6-(3,4,5-TRIFLUOROPHENYL)-3,6-DIHYDRO-1(2H)-PYRIMIDINECARBOXAMIDE. HYDROCHLORIDE SALT] | – | B | –

Source: patent publication US20040038855A1 (priority 1999, published 2004)
